Experiments:
[1] = molecular target: T1, Muscarinic acetylcholine receptor M2 (Homo sapiens) (UniProt P08172); settings: Compound concentration 10.0 uM
T1 sequence (whole entry): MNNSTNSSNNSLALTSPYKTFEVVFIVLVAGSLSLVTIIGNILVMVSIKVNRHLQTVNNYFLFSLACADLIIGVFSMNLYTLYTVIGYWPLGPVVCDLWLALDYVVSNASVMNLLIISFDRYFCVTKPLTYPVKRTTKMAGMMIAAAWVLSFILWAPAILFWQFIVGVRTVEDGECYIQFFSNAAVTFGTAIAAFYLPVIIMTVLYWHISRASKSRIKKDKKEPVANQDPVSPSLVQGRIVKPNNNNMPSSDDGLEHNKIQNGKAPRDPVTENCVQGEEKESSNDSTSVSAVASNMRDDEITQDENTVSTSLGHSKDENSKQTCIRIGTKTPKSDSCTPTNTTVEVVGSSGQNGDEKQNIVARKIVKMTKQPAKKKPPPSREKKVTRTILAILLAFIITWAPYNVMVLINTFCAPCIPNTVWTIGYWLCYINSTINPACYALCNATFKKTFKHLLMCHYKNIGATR

[2] = molecular target: 5-hydroxytryptamine receptor 2A (Homo sapiens) (UniProt P28223); settings: Compound concentration 10.0 uM
[3] = molecular target: Alpha-1A adrenergic receptor (Homo sapiens) (UniProt P35348); settings: Compound concentration 10.0 uM
[4] = molecular target: T2, 5-hydroxytryptamine receptor 1A (Homo sapiens) (UniProt P08908); settings: Compound concentration 10.0 uM
T2 sequence (whole entry): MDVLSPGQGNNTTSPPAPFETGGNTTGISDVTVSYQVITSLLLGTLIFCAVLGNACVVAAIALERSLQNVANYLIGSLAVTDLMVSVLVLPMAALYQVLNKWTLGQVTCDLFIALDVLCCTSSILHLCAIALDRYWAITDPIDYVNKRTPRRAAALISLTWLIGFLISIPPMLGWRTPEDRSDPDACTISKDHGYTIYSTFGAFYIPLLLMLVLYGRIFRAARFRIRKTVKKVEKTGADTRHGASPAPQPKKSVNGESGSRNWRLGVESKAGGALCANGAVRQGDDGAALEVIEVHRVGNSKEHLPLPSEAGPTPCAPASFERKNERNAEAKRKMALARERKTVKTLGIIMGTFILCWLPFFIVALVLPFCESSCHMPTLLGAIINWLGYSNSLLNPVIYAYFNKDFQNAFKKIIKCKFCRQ

[5] = molecular target: Alpha-1B adrenergic receptor (Homo sapiens) (UniProt P35368); settings: Compound concentration 10.0 uM
[6] = molecular target: D(1A) dopamine receptor (Homo sapiens) (UniProt P21728); settings: Compound concentration 10.0 uM
[7] = molecular target: 5-hydroxytryptamine receptor 2B (Homo sapiens) (UniProt P41595); settings: Compound concentration 10.0 uM
[8] = molecular target: Sigma non-opioid intracellular receptor 1 (Homo sapiens) (UniProt Q99720); settings: Compound concentration 10.0 uM
[9] = molecular target: Alpha-1D adrenergic receptor (Homo sapiens) (UniProt P25100); settings: Compound concentration 10.0 uM
[10] = molecular target: 5-hydroxytryptamine receptor 6 (Homo sapiens, UniProt P50406); settings: Compound concentration 10.0 uM
[11] = species: Rattus norvegicus; settings: Compound concentration 10.0 uM
[12] = molecular target: Alpha-2C adrenergic receptor (Homo sapiens) (UniProt P18825); settings: Compound concentration 10.0 uM
[13] = molecular target: Beta-2 adrenergic receptor (Homo sapiens) (UniProt P07550); settings: Compound concentration 10.0 uM
[14] = molecular target: 5-hydroxytryptamine receptor 2C (Homo sapiens) (UniProt P28335); settings: Compound concentration 10.0 uM
[15] = molecular target: 5-hydroxytryptamine receptor 7 (Homo sapiens) (UniProt P34969); settings: Compound concentration 10.0 uM
[16] = molecular target: GABA-A receptor; anion channel (Rattus norvegicus) (UniProt O09028+P15431+P18506+P18508+P19969+P20236+P23574+P23576+P28471+P28473+P30191+P62813+P63079+P63138+Q91ZM7+Q9ES14); settings: Compound concentration 10.0 uM
[17] = molecular target: Histamine H1 receptor (Homo sapiens) (UniProt P35367); settings: Compound concentration 10.0 uM
[18] = molecular target: Sodium-dependent serotonin transporter (Homo sapiens) (UniProt P31645); settings: Compound concentration 10.0 uM
[19] = molecular target: Sodium-dependent dopamine transporter (Homo sapiens, UniProt Q01959); settings: Compound concentration 10.0 uM
[20] = molecular target: T3, Muscarinic acetylcholine receptor M1 (Homo sapiens) (UniProt P11229); settings: Compound concentration 10.0 uM
T3 sequence (whole entry): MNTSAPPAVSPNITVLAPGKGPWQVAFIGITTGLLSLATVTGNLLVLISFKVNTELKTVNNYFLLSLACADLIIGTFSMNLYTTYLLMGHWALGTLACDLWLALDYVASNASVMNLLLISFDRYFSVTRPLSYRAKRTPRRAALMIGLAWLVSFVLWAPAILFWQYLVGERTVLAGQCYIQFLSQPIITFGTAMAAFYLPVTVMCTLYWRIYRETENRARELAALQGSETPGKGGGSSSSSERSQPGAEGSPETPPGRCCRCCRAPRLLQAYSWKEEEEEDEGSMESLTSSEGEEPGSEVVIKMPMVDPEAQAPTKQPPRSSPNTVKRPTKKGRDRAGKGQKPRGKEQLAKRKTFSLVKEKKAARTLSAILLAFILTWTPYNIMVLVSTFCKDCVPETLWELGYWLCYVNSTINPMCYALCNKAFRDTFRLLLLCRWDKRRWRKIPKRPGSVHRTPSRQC

[21] = molecular target: Alpha-2B adrenergic receptor (Homo sapiens) (UniProt P18089); settings: Compound concentration 10.0 uM
[22] = molecular target: Alpha-2A adrenergic receptor (Homo sapiens) (UniProt P08913); settings: Compound concentration 10.0 uM
[23] = molecular target: Beta-1 adrenergic receptor (Homo sapiens) (UniProt P08588); settings: Compound concentration 10.0 uM
[24] = molecular target: D(4) dopamine receptor (Homo sapiens) (UniProt P21917); settings: Compound concentration 10.0 uM
[25] = molecular target: Delta-type opioid receptor (Homo sapiens, UniProt P41143); settings: Compound concentration 10.0 uM
[26] = molecular target: Muscarinic acetylcholine receptor M4 (Homo sapiens) (UniProt P08173); settings: Compound concentration 10.0 uM
[27] = molecular target: Monocarboxylate transporter 2/3 (Homo sapiens, UniProt O60669+O95907); assay: Lactate efflux inhibition assay (RT4); type: protein assay

Chain of 5-hydroxytryptamine receptor 2C (Homo sapiens) (P28335 whole entry): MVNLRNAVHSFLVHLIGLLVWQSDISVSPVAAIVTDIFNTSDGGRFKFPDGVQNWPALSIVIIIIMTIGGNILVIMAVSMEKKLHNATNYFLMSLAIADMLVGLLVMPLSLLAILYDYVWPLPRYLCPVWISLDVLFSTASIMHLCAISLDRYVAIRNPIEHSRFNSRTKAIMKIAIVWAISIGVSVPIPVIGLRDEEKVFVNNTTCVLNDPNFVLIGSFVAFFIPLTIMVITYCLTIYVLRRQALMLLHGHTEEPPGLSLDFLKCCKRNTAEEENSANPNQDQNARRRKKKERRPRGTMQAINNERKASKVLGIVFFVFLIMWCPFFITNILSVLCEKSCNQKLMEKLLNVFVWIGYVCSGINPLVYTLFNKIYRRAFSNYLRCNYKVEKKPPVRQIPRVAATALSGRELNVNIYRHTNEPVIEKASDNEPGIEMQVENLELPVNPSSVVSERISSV
Chain of Alpha-2B adrenergic receptor (Homo sapiens) (P18089 whole entry): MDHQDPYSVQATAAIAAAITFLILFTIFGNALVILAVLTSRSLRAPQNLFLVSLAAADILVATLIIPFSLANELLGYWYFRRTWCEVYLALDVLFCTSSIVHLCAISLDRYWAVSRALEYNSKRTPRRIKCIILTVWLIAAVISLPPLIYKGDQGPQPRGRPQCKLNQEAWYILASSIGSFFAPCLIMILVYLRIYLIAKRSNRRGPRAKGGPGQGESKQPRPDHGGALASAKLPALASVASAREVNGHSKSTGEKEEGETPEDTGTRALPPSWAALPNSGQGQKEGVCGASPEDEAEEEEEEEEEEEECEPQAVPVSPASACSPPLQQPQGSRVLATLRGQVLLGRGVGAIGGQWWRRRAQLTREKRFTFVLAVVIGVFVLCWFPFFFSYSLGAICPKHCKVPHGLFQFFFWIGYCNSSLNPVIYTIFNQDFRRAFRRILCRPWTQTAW
Chain of Alpha-1A adrenergic receptor (Homo sapiens) (P35348 whole entry): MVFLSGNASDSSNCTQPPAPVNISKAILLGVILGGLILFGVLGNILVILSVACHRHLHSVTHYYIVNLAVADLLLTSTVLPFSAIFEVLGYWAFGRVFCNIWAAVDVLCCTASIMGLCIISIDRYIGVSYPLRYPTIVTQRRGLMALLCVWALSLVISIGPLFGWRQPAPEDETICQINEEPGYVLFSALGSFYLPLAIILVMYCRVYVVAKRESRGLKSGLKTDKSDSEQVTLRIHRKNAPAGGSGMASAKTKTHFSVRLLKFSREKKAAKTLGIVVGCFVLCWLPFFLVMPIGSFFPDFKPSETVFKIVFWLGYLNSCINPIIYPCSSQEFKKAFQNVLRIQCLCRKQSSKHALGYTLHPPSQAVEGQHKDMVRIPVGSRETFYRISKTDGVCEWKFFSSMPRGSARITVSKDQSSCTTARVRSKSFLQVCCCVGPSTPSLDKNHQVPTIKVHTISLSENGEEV
Chain of Beta-2 adrenergic receptor (Homo sapiens) (P07550 whole entry, looked up): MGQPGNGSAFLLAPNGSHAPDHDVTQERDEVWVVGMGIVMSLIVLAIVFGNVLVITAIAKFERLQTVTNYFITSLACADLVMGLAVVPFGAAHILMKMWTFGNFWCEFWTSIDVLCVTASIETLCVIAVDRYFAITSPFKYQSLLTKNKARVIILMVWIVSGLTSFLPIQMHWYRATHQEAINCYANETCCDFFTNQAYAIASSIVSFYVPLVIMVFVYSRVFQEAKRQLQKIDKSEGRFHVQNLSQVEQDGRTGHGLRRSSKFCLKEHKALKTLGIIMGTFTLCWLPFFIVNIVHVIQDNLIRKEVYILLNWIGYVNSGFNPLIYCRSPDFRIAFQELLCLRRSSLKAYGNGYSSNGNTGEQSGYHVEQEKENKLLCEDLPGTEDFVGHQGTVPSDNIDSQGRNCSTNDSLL
Chain of D(4) dopamine receptor (Homo sapiens) (P21917 whole entry): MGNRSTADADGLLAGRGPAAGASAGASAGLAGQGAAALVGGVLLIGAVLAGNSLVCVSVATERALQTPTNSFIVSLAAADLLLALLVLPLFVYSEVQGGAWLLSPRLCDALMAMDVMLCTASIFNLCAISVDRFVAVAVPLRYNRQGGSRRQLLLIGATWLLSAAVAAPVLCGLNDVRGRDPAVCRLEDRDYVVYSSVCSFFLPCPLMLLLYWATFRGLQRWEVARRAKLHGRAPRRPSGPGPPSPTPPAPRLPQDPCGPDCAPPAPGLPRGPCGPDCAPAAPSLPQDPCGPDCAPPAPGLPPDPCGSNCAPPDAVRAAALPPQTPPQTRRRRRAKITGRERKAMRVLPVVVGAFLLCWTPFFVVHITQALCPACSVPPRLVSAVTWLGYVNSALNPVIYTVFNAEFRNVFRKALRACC
Chain of Alpha-2C adrenergic receptor (Homo sapiens) (P18825 whole entry): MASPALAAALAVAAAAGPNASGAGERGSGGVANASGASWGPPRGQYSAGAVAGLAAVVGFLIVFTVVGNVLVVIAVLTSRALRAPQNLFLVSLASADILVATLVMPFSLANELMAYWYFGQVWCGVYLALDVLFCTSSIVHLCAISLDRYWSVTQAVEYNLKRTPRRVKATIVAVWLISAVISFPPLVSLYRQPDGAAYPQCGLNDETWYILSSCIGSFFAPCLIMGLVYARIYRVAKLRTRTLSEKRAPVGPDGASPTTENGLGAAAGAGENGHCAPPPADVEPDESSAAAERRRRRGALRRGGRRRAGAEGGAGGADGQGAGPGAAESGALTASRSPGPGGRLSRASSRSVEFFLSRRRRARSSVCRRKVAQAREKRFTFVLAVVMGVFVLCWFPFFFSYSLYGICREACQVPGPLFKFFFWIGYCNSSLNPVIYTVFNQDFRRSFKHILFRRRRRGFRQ
Chain of Sigma non-opioid intracellular receptor 1 (Homo sapiens) (Q99720 whole entry): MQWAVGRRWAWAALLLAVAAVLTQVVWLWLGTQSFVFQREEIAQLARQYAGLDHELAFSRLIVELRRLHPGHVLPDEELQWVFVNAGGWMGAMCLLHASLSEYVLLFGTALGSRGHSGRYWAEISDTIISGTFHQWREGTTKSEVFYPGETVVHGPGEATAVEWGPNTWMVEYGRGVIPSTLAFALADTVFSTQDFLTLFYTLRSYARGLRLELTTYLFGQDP
Chain of Beta-1 adrenergic receptor (Homo sapiens) (P08588 whole entry, looked up): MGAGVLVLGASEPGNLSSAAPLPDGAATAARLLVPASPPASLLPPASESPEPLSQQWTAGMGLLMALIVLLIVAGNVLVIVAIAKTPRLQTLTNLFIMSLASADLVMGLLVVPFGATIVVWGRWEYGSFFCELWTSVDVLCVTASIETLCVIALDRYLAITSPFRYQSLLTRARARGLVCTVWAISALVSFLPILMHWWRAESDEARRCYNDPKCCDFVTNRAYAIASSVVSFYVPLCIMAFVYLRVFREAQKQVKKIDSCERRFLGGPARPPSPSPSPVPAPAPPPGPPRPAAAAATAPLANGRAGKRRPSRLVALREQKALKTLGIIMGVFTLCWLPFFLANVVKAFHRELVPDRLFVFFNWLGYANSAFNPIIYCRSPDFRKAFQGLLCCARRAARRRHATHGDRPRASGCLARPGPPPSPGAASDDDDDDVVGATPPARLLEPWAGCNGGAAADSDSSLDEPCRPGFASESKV
Chain of D(1A) dopamine receptor (Homo sapiens) (P21728 whole entry): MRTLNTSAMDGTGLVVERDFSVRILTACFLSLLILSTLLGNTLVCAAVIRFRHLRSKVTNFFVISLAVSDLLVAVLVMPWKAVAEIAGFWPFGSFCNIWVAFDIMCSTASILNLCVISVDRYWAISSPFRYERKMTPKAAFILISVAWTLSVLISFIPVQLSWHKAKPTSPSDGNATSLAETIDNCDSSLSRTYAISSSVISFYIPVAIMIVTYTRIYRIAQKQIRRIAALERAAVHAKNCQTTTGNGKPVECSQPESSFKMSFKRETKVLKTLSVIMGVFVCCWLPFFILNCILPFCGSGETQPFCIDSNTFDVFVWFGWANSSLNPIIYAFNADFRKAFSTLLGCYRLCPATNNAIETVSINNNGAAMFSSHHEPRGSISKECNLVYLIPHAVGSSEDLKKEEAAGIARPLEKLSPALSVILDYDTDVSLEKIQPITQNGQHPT
Chain of Alpha-1D adrenergic receptor (Homo sapiens) (P25100 whole entry): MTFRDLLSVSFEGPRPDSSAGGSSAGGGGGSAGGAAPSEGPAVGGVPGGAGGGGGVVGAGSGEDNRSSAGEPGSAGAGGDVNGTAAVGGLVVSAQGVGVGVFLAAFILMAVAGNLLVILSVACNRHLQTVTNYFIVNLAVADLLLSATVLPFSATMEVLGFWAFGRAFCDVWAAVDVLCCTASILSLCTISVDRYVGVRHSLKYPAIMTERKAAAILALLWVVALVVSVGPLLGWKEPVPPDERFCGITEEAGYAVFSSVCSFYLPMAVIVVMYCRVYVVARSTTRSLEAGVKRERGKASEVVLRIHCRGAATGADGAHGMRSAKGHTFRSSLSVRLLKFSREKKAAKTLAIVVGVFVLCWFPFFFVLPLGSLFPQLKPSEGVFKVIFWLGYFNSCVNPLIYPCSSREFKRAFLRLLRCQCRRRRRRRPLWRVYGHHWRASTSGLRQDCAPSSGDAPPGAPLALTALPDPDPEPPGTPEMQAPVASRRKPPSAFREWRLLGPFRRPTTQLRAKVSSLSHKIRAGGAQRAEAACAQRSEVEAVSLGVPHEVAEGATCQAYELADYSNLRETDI
Chain of 5-hydroxytryptamine receptor 7 (Homo sapiens) (P34969 whole entry): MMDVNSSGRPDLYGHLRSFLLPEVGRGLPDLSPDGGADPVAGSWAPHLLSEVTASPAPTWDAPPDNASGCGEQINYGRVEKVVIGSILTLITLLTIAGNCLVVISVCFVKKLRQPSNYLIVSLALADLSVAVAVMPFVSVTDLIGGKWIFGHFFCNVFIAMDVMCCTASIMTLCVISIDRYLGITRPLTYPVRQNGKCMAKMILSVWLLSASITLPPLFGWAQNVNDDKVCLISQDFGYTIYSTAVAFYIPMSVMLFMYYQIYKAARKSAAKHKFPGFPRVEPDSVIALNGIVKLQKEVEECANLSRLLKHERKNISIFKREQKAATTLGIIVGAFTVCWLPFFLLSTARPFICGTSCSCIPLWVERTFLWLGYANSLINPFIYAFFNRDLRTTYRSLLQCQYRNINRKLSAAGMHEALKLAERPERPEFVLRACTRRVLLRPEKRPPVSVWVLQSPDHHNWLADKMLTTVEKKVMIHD

Row | inhibition [1] | inhibition [2] | inhibition [3] | inhibition [4] | inhibition [5] | inhibition [6] | inhibition [7] | inhibition [8] | inhibition [9] | inhibition [10] | inhibition [11] | inhibition [12] | inhibition [13] | inhibition [14] | inhibition [15] | inhibition [16] | inhibition [17] | inhibition [18] | inhibition [19] | inhibition [20] | Structure (SMILES) | further results
1 | 2.62% | 9.61% | 13.7% | 40.2% | 16.9% | 17.8% | 34.9% | 18.7% | 1.48% | 65.5% | 60.4% | 13% | -2.19% | 7.95% | -2.53% | 25.6% | -1.47% | 3.99% | 80.3% | 25% | COc1cc(C(=O)O)ncc1C#Cc1ccccc1NS(=O)(=O)c1cccc2c(N(C)C)ccnc12 [MSC-0516] | inhibition [21]: 8.34%; inhibition [22]: 44.4%; inhibition [23]: 16.7%; inhibition [24]: 4.65%; inhibition [25]: 84.3%; inhibition [26]: -5.83%; IC50 [27]: > 4 µM (not active)
2 | -0.58% | -0.22% | 13.3% | 18.6% | -9.4% | 8.58% | 8.83% | -6.66% | 20.8% | 25.9% | 45% | 27.7% | 14.8% | 24.4% | 2.02% | 0.15% | 21.7% | 6.49% | 23.4% | 16.3% | CCOc1ccc(S(=O)(=O)Nc2ccc(Cl)cc2C#Cc2cnc(C(=O)O)cc2OC)c2ncccc12 [MSC-4381] | inhibition [21]: 15%; inhibition [22]: 26%; inhibition [23]: 18.8%; inhibition [24]: 4.2%; inhibition [25]: -8.88%; inhibition [26]: 4.24%; IC50 [27]: 0.638 µM
